In patent publication US20260183411A1, “TARGETING SORTILIN” (priority 2024, published 2026):

Target: T1, SORT1 (Homo sapiens, UniProt Q99523)
T1 construct: Human SORT1 (78-755)-His (Acrobiosystems); His (C); purchased Acrobiosystems SON-H52H5
T1 sequence (Q99523 78-755): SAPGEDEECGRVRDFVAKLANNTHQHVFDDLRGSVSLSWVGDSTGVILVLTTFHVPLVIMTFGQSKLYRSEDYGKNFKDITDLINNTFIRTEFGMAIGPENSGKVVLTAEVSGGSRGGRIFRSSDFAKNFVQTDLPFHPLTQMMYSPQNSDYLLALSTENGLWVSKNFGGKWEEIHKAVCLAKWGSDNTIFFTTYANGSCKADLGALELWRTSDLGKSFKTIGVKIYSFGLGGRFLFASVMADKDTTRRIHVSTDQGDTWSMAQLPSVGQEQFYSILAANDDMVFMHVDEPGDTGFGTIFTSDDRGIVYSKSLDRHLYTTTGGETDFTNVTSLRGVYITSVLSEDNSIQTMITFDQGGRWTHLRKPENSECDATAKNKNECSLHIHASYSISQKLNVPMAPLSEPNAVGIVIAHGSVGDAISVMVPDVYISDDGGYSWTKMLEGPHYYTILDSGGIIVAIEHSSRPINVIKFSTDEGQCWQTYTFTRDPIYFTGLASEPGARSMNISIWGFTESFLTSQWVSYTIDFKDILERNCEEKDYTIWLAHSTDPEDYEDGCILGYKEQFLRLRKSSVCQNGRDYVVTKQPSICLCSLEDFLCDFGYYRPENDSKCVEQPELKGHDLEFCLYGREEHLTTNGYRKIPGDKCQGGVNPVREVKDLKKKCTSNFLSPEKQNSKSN
Test: FP competition binding assay
Procedure: Competition binding studies were conducted in a similar manner to the direct binding protocol. Unlabeled peptides were prepared with a 12-point, two-fold dilution series in a V-bottom 96-well plate for a total volume of 25 uL with a starting concentration of 50 μM. A 10× working stock of the FAM labeled peptide was prepared as described for the Direct binding experiment.
A 500 nM working solution (EC80) of target protein was prepared in the FP buffer (1×PBS, pH 7.4, 0.1% Tween-20). An aliquot of 20 μL of the 500 nM working solution was then added to 2.5 μL of the FAM-peptide, after which 2.5 μL of the unlabeled peptide dilution series was added and mixed by pipetting in a V-bottom 96-well plate. […] The 384-well plate was then centrifuged 1 min, 4000 rpm and fluorescence and polarization of dye measured on a Biotek Synergy Neo2 plate reader using the same settings as for the Direct Binding experiment. Data were then fitted to a One site—Fit log IC50 curve in GraphPad to calculate the IC50.
The various conjugates were evaluated in a competitive fluorescence polarization study as described elsewhere herein.

CC[C@H](C)[C@@H]([C@@H](CC(=O)N1CCC[C@H]1[C@H](OC)[C@@H](C)C(=O)N[C@H](C)[C@@H](O)c1ccccc1)OC)N(C)C(=O)[C@@H](NC(=O)[C@H](C(C)C)N(C)C(=O)OCc1ccc(NC(=O)[C@H](CCCNC(N)=O)NC(=O)[C@@H](NC(=O)CCCC(=O)NCCC(=O)N(C)CC(=O)N(C)CC(=O)N(C)CC(=O)N(C)CC(=O)N[C@@H](C)C(=O)N2CCC[C@H]2C(=O)N[C@@H](CCCNC(=N)N)C(=O)N[C@@H](Cc2c[nH]c3ccccc23)C(=O)N[C@@H](CC(=O)O)C(=O)N[C@@H](C)C(=O)N2CCC[C@H]2C(=O)N[C@@H](CC(C)C)C(=O)N[C@@H](CCCNC(=N)N)C(=O)N[C@@H](CC(=O)O)C(=O)N2CCC[C@H]2C(=O)N[C@@H](C)C(=O)N[C@@H](CC(C)C)C(=O)N[C@@H](CCCNC(=N)N)C(=O)N[C@@H](CCC(N)=O)C(=O)N[C@@H](CC(C)C)C(=O)N[C@@H](CC(C)C)C(=O)O)C(C)C)cc1)C(C)C [PRGN_WT_PDC]
increase in affinity relative to parent homing peptide: ~2.5 ×
